Test results reported in patent publication US20050000154A1, “Apparatus and methods for enhanced plant and lawn growth using alkane injection” (Global BioSciences, Inc., priority 2001, published 2005).
Several values for one entry are separate records, joined by “and”; a condition that tells them apart may be missing. Equal entries are not always repeated. Where two headings read alike, the source gives them in different places.

Tests used:
[1] = system: sweet corn, variety Sugar Dots; conditions: for Seedling Height: two seedlings
Protocol: The tubing intersected the vessel through the diameter at a height of 1.5 cm above the base. […] Each vessel was filled with approximately 523 cm^3 of Iowa Crop Soil (soil depth =5.5 cm) that had been collected from an Iowa commercial cornfield. The soil in each vessel was tested for pH using a Chemetrics pH meter dipped in a mixture of 40 ml distilled water and 100 grams of soil.
Each vessel was seeded with two seeds of sweet corn, variety Sugar Dots, placed (illustrated in FIG. 9) at a depth of 2.54 cm below soil surface. Each vessel was then watered with 100 ml spring water and positioned on its own drainage tray on a shelf approximately 10 cm below two 33 watt grow light tubes (no sunlight) equipped with a timer set for 16 hours light on, 6 hours light off. White reflective covering was placed on the wall immediately behind the samples, with an aluminum foil hood extending over the light fixture to reflect light downward onto the vessels.

[2] = system: sweet corn, variety Sugar Dots; conditions: for Seedling Height: two seedlings; remark: listed apart in the source
Protocol: The tubing intersected the vessel through the diameter at a height of 3.5 cm above the base. […] Each vessel was filled with approximately 902 cm^3 of Iowa Crop Soil (soil depth =9.5 cm) that had been collected from an Iowa commercial cornfield. The soil in each vessel was tested for pH using a Chemetrics pH meter dipped in a mixture of 40 ml distilled water and 100 grams of soil.
Each vessel was seeded with two seeds of sweet corn, variety Sugar Dots, (using the seed positions shown in FIG. 9) placed at a depth of 2.54 cm below soil surface. Each vessel was then watered with 100 ml spring water and positioned on its own drainage tray on a shelf approximately 10 cm below three 33 watt grow light tubes (no sunlight) equipped with a timer set for 16 hours light on, 6 hours light off. White reflective covering was placed on the wall immediately behind the samples, with an aluminum foil hood extending over the light fixture to reflect light downward onto the vessels.

Gladioli bulb [3] = conditions: liquid butane injected into the rhizosphere, halted Day 19
Protocol: Each vessel was filled with approximately 800 cm^3 of Pro-Mix® Potting Soil 214.
Each vessel contained one Gladioli bulb 216 placed at a depth of 10 cm below soil surface. FIG. 21 is a photograph showing the bulbs and vessels. Each vessel was then watered with 100 ml spring water and positioned on its own drainage tray on a shelf approximately 60 cm below two 33 watt grow light tubes (no sunlight) equipped with a timer set for 16 hours light on, 6 hours light off.

Gladioli bulb [4] = system: Gladioli bulb
Protocol: Each vessel was filled with approximately 800 cm^3 of Pro-Mix® Potting Soil (see FIGS. 20 and 21).
Each vessel contained one Gladioli bulb placed at a depth of 10 cm below soil surface. Each vessel was then watered with 100 ml spring water and positioned on its own drainage tray on a shelf approximately 60 cm below two 33 watt grow light tubes (no sunlight) equipped with a timer set for 16 hours light on, 6 hours light off.

[5] = system: sunflower (Sun Gold-Golden Yellow Double) seed; conditions: for Seedling Height / germination: sterilized Caribbean Beach Sand
Protocol: Four vessels were filled with approximately 800 cm^3 of Paver Construction Sand (non-sterile) and two vessels contained sterilized Caribbean beach sand (see FIG. 23).
Each vessel contained one sunflower (Sun Gold-Golden Yellow Double) seed placed at a depth of 5.0 cm below soil surface. Each vessel was then watered with 100 ml spring water and positioned on its own drainage tray on a shelf approximately 60 cm below two 33 watt grow light tubes (no sunlight) equipped with a timer set for 16 hours light on, 6 hours light off.

[6] = Table 7 Day No. 6 (final day), Butane Bulb 1 and 2

With `CCCC` [Butane, n-butane] the “Seedling Height” value ([1]; Day No. 6, n-butane injected into root zone) was 0.5 cm and 0.8 cm, the “Seedling Height” value ([1]; Day No. 7) was 4.0 cm and 4.5 cm and the “Seedling Height” value ([1]; Day No. 8) was 7.0 cm and 6.0 cm. For the same molecule, the “Seedling Height” value ([1]; Day No. 9 (final day)) was 11.0 cm and 6.8 cm, the “Seedling Height” value ([1]; Day No. 9 (final day), listed as butane) was 11 cm and 6.8 cm and the “root spread compared with control plants” value ([1]; seen through clear vessels) was “greater and more complex degree horizontally”. For the same molecule, the “average height taller than the control corn plant” value ([2]; Day 16) was 55%, the “average growth in height” value ([2]; Day 16, average of two plants) was 23.3 cm and the “Seedling Height” value ([2]; Day No. 5) was 0.5 cm and 1.0 cm. For the same molecule, the “Seedling Height” value ([2]; Day No. 6) was 3.0 cm, 3.0 cm, the “Seedling Height” value ([2]; Day No. 7) was 4.0 cm, 4.0 cm and the “Seedling Height” value ([2]; Day No. 8) was 6.0 cm and 5.7 cm. For the same molecule, the “Seedling Height” value ([2]; Day No. 9) was 8.0 cm and 7.2 cm, the “Seedling Height” value ([2]; Day No. 10) was 11.0 cm and 9.1 cm and the “Seedling Height” value ([2]; Day No. 11) was 16.0 cm and 12 cm. For the same molecule, the “Seedling Height” value ([2]; Day No. 12) was 18.0 cm and 15.5 cm, the “Seedling Height” value ([2]; Day No. 13) was 19.0 cm and 16.7 cm and the “Seedling Height” value ([2]; Day No. 14) was 20.1 cm and 17.3 cm. For the same molecule, the “Seedling Height” value ([2]; Day No. 15) was 22.0 cm and 18.0 cm, the “Seedling Height” value ([2]; Day No. 16) was 27.0 cm and 19.6 cm and the “time of sprouting compared with control plant” value ([2]; in vivo) was “three days earlier”. The stem thickness ([2]; last day of growth (Day 16), taller plant, shorter plant) was 0.5 cm and 0.3 cm, the average growth rate ([2]; over the sixteen-day period, average of two plants) was 1.45 cm per day and the root branch length ([2]; seen through clear vessels) was “up to 3 cm”. For the same molecule, the “faster growth rate than the control plant” value ([2]; sixteen-day period) was 54%, the seed sprouting ([2]; two seeds planted) was “sprouted into seedlings” and the “effect of liquid butane injection on growing plants” value (Gladioli bulb [3]; listed as Liquid butane) was “into the rhizosphere killed the”. The “effect of liquid butane injection on growing plants” value (Gladioli bulb [3]; listed as liquid butane) was “killed”, the “Seedling Height, secondary shoot” value (Gladioli bulb [4]; Table 7 Day No. 1, Butane Bulb 2) was “Secondary shoot 3.0 cm” and the “Seedling Height, main shoot” value (Gladioli bulb [4]; [6]) was 27.0 cm and 29.0 cm. For the same molecule, the “Seedling Height, secondary shoot” value (Gladioli bulb [4]; [6]) was 14.0 cm and 23.0 cm, the “root development compared with control plant” value (Gladioli bulb [4]; butane enrichment for 17 days, bulbs unearthed) was “greater” and the bulb shoot bifurcation (Gladioli bulb [4]; butane gas injection, shoots directly from the bulb sphere) was “conditioned to grow two plants”. For the same molecule, the “root development compared with control plant” value ([5]; Day 23, Paver Sand, unearthed) was “thicker and more robust”, the “Seedling Height” value ([5]; Day No. 23, Paver Sand (non-sterile), two plants) was 20.0 cm and the “Seedling Height / germination” value ([5]; Day No. 23) was “no seed growth or”. The “Seedling Height / germination” value ([5]; Day No. 23, listed as butane) was “No seed growth or germination”.
